Assay results taken from patent US20250275976A1, “Methods of Treating Neuroinflammatory Conditions” (Athira Pharma, Inc., priority 2022, published 2025).
Square brackets hold non-standard residues; d marks the D form. Peptide text beside a SMILES is read from it. * marks the point of attachment. Hexanoyl = CCCCCC(=O)*; Ahx = NCCCCCC(=O)O

Tests used:
[1] = tested on: THP-1-differentiated macrophages; assay: Pro-inflammatory cytokines in supernatants of LPS-challenged THP-1-differentiated macrophages; format: cell-based, human; design: key to Significant reduction in pro-inflammatory cytokine expression: IL-6 / Significant reduction in pro-inflammatory cytokine expression: TNF-α / Significant reduction in pro-inflammatory cytokine expression: IL-1β: “NS” indicates a non-significant reduction in the indicated cytokine; “+” indicates a p value <0.05 in Tukey post test; “++” indicates a p value <0.01 in Tukey post test; details: for Expression of IL-1β and TNF-α (result in words) / Expression of IL-6 (result in words): at at least one tested dose; for Significant reduction in pro-inflammatory cytokine expression: IL-1β / Significant reduction in pro-inflammatory cytokine expression: IL-6 / Significant reduction in pro-inflammatory cytokine expression: TNF-α: LPS 24 hrs
From the text: Neuroinflammation plays a crucial role in disease progression and is a complex phenomenon involving various cells that affect many extra- and intracellular signaling pathways and cytokine production. The macrophage of the brain (microglia) is the main agent of innate immunity in the CNS and performs various functions, including neuroprotection, in response to inflammatory signals. Activated microglia participate in developing neuroinflammation, responding to toxic exogenous substances (like LPS) or endogenous substances (like amyloid-beta). Here, THP-1 cells were used as an in-vitro cell model to evaluate mechanisms relevant to CNS inflammation. Differentiation with phorbol-12-myristate-13-acetate (PMA) causes THP-1 monocyte cells to acquire functional and morphological resemblance to macrophages. LPS interacts with THP-1 differentiated macrophage through the toll-like receptor 4, triggering the inflammatory response and stimulating pro-inflammatory cytokine release and eventually leading to cellular death. Test compounds were investigated for whether they have anti-inflammatory effects on LPS-challenged macrophage cultures. THP-1-differentiated macrophages were treated with test compounds for 20 minutes, followed by 24 hrs of LPS challenge. Culture supernatants were then collected to analyzed for the presence of pro-inflammatory cytokines: interleukin 1β (IL--1β), interleukin 6 (IL-6) and tumor necrosis factor α (TNF-α).
Cytokine quantification in cell culture supernatants was accomplished by homogeneous time resolved fluorescence (HTRF) kits to assess levels of IL-1β (Human IL-1β kit, #62HIL1BPEG, Cisbio) and IL-6 (Human IL-6 kit, 62HILO6PET, Cisbio), and by ELISA (Human TNF-α ELISA kit, KHC3011, ThermoFisher) to determine the levels of TNF-α.
Data analysis was performed via 1-way ANOVA with Tukey post-test compared to LPS treatment cultures using Prism statistical software (GraphPad). Tabular data indicates significance of reduction in culture supernatants for the indicated analyte at the indicated dose.

[2] = tested on: Rat primary cortical neuron cultures; assay: Neuroprotection of rat cortical neurons against LPS challenge (Cell Titer-Glo); details: for Protection of primary neurons from LPS-stimulated inflammatory toxicity (in words): at at least one dose tested; for Significance of neuroprotection vs 1 uM LPS: LPS 24 h

| Compound | Expression of IL-1β and TNF-α (result in words) [1] | Expression of IL-6 (result in words) [1] | Significant reduction in pro-inflammatory cytokine expression: IL-1β ([1]; dose 0.1 nM) | Significant reduction in pro-inflammatory cytokine expression: IL-6 ([1]; dose 0.1 nM) | Significant reduction in pro-inflammatory cytokine expression: TNF-α ([1]; dose 0.1 nM) | Significant reduction in pro-inflammatory cytokine expression: IL-1β ([1]; dose 10 nM) | Significant reduction in pro-inflammatory cytokine expression: IL-6 ([1]; dose 10 nM) | Significant reduction in pro-inflammatory cytokine expression: TNF-α ([1]; dose 10 nM) | Significant reduction in pro-inflammatory cytokine expression: IL-1β ([1]; dose 1000 nM) | Significant reduction in pro-inflammatory cytokine expression: IL-6 ([1]; dose 1000 nM) | Significant reduction in pro-inflammatory cytokine expression: TNF-α ([1]; dose 1000 nM) | Protection of primary neurons from LPS-stimulated inflammatory toxicity (in words) [2] | Significance of neuroprotection vs 1 uM LPS ([2]; dose 0.1 nM) | Significance of neuroprotection vs 1 uM LPS ([2]; dose 1 nM) | Significance of neuroprotection vs 1 uM LPS ([2]; dose 10 nM) | Significance of neuroprotection vs 1 uM LPS ([2]; dose 100 nM) | Significance of neuroprotection vs 1 uM LPS ([2]; dose 1 μM) |
| --- | --- | --- | --- | --- | --- | --- | --- | --- | --- | --- | --- | --- | --- | --- | --- | --- | --- |
| CCC(C)CN1CC2N(C(=O)c3ccc(C(F)(F)F)cc3)CCC(=O)N2[C@@H](C)C1=O (some centres unmarked) [Compound 1a] | significantly reduced | significantly reduced | ++ (“++” indicates a p value <0.01 in Tukey post test) | NS | ++ (“++” indicates a p value <0.01 in Tukey post test) | ++ (“++” indicates a p value <0.01 in Tukey post test) | ++ (“++” indicates a p value <0.01 in Tukey post test) | ++ (“++” indicates a p value <0.01 in Tukey post test) | ++ (“++” indicates a p value <0.01 in Tukey post test) | + (“+” indicates a p value <0.05 in Tukey post test) | ++ (“++” indicates a p value <0.01 in Tukey post test) | protected primary neurons from LPS-stimulated inflammatory toxicity |  |  |  |  |  |
| CCC(C)CN1CC2N(Cc3ccc(C(F)(F)F)cc3)CCC(=O)N2[C@@H](C)C1=O (some centres unmarked) [Compound 5a] | significantly reduced | significantly reduced | ++ (“++” indicates a p value <0.01 in Tukey post test) | NS | NS | ++ (“++” indicates a p value <0.01 in Tukey post test) | + (“+” indicates a p value <0.05 in Tukey post test) | NS | ++ (“++” indicates a p value <0.01 in Tukey post test) | ++ (“++” indicates a p value <0.01 in Tukey post test) | + (“+” indicates a p value <0.05 in Tukey post test) | protected primary neurons from LPS-stimulated inflammatory toxicity |  |  |  |  |  |
| CCCCCC(=O)N[C@@H](Cc1ccc(O)cc1)C(=O)N[C@H](C(=O)NCCCCCC(N)=O)[C@@H](C)CC [Compound A19 active metabolite, dihexa] (Hexanoyl-Tyr-Ile-[Ahx]-NH2) | significantly reduced | significantly reduced | NS | NS | NS | ++ (“++” indicates a p value <0.01 in Tukey post test) | + (“+” indicates a p value <0.05 in Tukey post test) | + (“+” indicates a p value <0.05 in Tukey post test) | + (“+” indicates a p value <0.05 in Tukey post test) | ++ (“++” indicates a p value <0.01 in Tukey post test) | ++ (“++” indicates a p value <0.01 in Tukey post test) | protected primary neurons from LPS-stimulated inflammatory toxicity | +++ (+++ indicates p<0.001) | ++ (++ indicates p<0.01) | +++ (+++ indicates p<0.001) | ++ (++ indicates p<0.01) | ++ (++ indicates p<0.01) |
